Test results reported in PMC5730592, “Parallelogram based approach for in vivo dose estimation of genotoxic metabolites in humans with relevance to reduction of animal experiments” (Scientific Reports, 2017).
Several values for one entry are separate records, joined by “and”; a condition that tells them apart may be missing. Equal entries are not always repeated. Where two headings read alike, the source gives them in different places.

How the values were obtained:
[1] = in vitro; details: for Vmax (SE), GA elimination: GA 2–50 μM, 10 min, pH 7.5, 37 °C, n = 7 × 2; for EE = Vmax/Km, GA elimination / Km: male, pH 7.5
Experimental: As the parameters Vmax and Km were determined by the same experimental setup, the enzyme efficiency (EE) for the metabolic reactions is calculated as the ratio of Vmax to Km.
The metabolic system was similar to that we used in our earlier work[20] and is described in Supplementary information Note 1. […] The mixture was centrifuged (500 × g, 4 min) and supernatant treated as described below.
The supernatant (300 μL) obtained following centrifugation in the metabolism experiments was added to a cob(I)alamin solution (200 μL) in water. The reaction was continued under argon atmosphere for 20 min, and subsequently a gentle stream of air was passed to oxidize any reduced cobalamin. Analysis of the solution was performed by liquid chromatography tandem mass spectrometry (LC-MS/MS). The MS was operated using electrospray positive-ionization (ESI^+) and quantification performed using multiple reaction monitoring (MRM) mode. Method for preparation of cob(I)alamin solution from hydroxocobalamin and analysis of the generated alkylcobalamins, GA-Cbl from GA and PO-Cbl from PO, were similar to our earlier work[8] and are described under Supplementary information Notes 2–4.
The area under MRM peaks from GA-Cbl and PO-Cbl were measured with Analyst software version 1.5 from AB Sciex. Using calibration curve obtained for GA using inactivated S9 as matrix, the concentrations of GA in the metabolism studies were determined as described earlier by us[8]. The metabolic data was used to obtain Lineweaver-Burk plot for graphical representation of studied enzyme kinetics. Apparent values for the respective maximum velocity (Vmax) of the enzymatic conversion, the Michaelis constant (Km) and standard error were estimated by nonlinear fitting using the Hill function in Origin version 2015 (OriginLab, Northampton, MA, USA).
To human or rat liver S9 fraction (150 μL, 1–5 mg proteins) at 4 °C in a 2 mL vial with a screw-tight cap were added aqueous KCl (0.15 M, 300 μL), MgSO4 (80 mM, 150 μL), glucose-6-phosphate (50 mM, 150 μL) and NADP (40 mM, 150 μL), and the volume was made up to 1.5 mL with pH 7.5 phosphate buffer. The mixture was incubated for 5 min at 37 °C prior to the addition of the substrate.

[2] = Parallelogram approach estimation of AUC-GA in rat
Description: The parallelogram approach representing inter-species comparison of in vivo dose and the use of in vitro data is shown in Fig. 1 for the metabolic transformation of R to RX, which is referred to as the metabolism of AA to GA in the present study. This figure can be formulated to Eq. 1 as described in Methods (cf. Eq. 5), where the superscripts H and R represent the corresponding AUC or EE in human and rat, respectively.1 AUC^H−RX/AUC^R−RX=EE^H−R→RX/EE^H−RXel/EE^R−R→RX/EE^R−RXel×AUC^H−R/AUC^R−R
The in vitro data on enzyme kinetics from human and rat (Table 1), and the in vivo data on AUC of AA and of GA in rat (Table 2) were used to calculate the predictive value of AUC-GA per AUC-AA in human, according to the parallelogram approach (cf. Methods, Eq. 5). This was calculated to 0.087 (Table 3). […] It was observed that the AUC-GA in human and rat predicted by the parallelogram approach and from measured Hb adduct levels, respectively, differed with about a factor of 3 (cf. Tables 2 and 3). This difference is within the variability range of AUC-GA for respective species calculated from different in vivo studies. […]

[3] = cited from earlier work
[4] = cited from earlier work; remark: listed apart in the source
[5] = male rat, different AA exposure studies, various methods; cited from earlier work

SMILES: NC(=O)C1CO1 (racemic) [GA, rac-Glycidamide]
- Vmax (SE), GA elimination ([1]; Human S9): 1.6 (0.7) nmol·mg protein^−1·min^−1
- Vmax (SE), GA elimination ([1]; Rat S9 (male SD)): 0.26 (0.02) nmol·mg protein^−1·min^−1
- EE of elimination of GA, human compared to rat (times faster in human) ([1]; liver S9, human vs. rat): ca. 1.5 times
- EE of oxidative formation of GA, rat compared to human (times faster in rat) ([1]; liver S9, rat vs. human): ca. 4 times
- EE ratio of AA → GA to that of GAel, rat compared to human (times higher in rat) ([1]; liver S9, rat vs. human): ca. 6 times
- EE = Vmax/Km, GA elimination ([1]; Sprague-Dawley, rat): 43 μL·mg protein^−1·min^−1
- Km ([1]; Sprague-Dawley, rat): 6 µM
- EE = Vmax/Km, GA elimination ([1]; human): 62 μL·mg protein^−1·min^−1
- Km ([1]; human): 26 µM
- AUC-GA estimated from the parallelogram approach ([2]; Rat, predicted ratio × measured rat AUC-AA): 48 nM·h/μg AA per kg bw
- ratio between species (rat-to-human) of AUC-GA per AUC-AA ([2]; from the parallelogram approach): 16
- daily Hb adduct level increment per exposure dose ([3]; Human, AA-rich food 4 days, 11 μg AA/kg bw, adducts to N-terminal valine): 1.02 pmol/g globin per μg AA/kg bw and day
- AUC-GA ([3]; Human, ca. 11 μg AA/kg bw and day through food, 4 days, n = 9, from Hb adducts): 49 nM·h/μg AA per kg bw and 49 ± 17 nM·h/μg AA per kg bw
- AUC-GA ([3]; Humans, ca. 2.5 μg AA/kg bw daily through food, 28 days, n = 9, ref Vikström et al. (2011)): 21 nM·h/ μg AA per kg bw
- AUC-GA ([3]; Humans, single dose in drinking water 500, 1000 and 3000 µg AA/kg bw, n = 6 males, ref Fennell et al. (2005)): 60 nM·h/ μg AA per kg bw
- AUC-GA ([4]; Rat (male F344), 500 and 2000 μg AA/kg bw and day in drinking water, one week, n = 6, from Hb adducts): 18 nM·h/μg AA per kg bw and 18 ± 1 nM·h/μg AA per kg bw
- AUC of GA ([4]; SD rat (male), subchronic intraperitoneal AA, Hb adducts on cysteine site): 16.3 nM·h per μg AA per kg bw
- AUC-GA ([4]; male F344 rats, single dose 0.1 mg AA/kg bw, Hb adducts, ref Tareke et al. (2006)): 14 nM·h/ μg AA per kg bw
- range of AUC-GA [5]: 13–52 nM·h per μg AA per kg bw
